ChEMBL document CHEMBL1201862, “PubChem BioAssay data set” (2004)
Activity calls are given as the source filed them.

Legend:
[1] = biological target: Nuclear receptor subfamily 5 group A member 2 (Homo sapiens, UniProt O00482); format: functional, cell-based;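 further: HEK293T cells transfected with LRH-1 and a StAR promoter luciferase reporter; potency for inhibitors that lower LRH-1 driven reporter light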
HEK293 [2] = experiment: cells; format: functional, cell-based; conditions: Homo sapiens
[3] = THP-1 cell cytotoxicity, dose response, cytotoxicity control for non-replicating M. tuberculosis project (AID 489025); format: functional
HEK293 [4] = experiment: NOD2 signaling inhibitors in MDP-stimulated cells, cell-based, uHTS, luminescence (AID 2001); format: functional; conditions: Homo sapiens
HEK293 [5] = experiment: cells; format: functional, cell-based; conditions: Homo sapiens; remark: listed apart in the source
Steroidogenic factor 1 = Steroidogenic factor 1 (Homo sapiens, UniProt Q13285); experiment: Counterscreen for inverse agonists of the liver receptor homolog-1 (LRH-1; NR5A2): Luminescence-based cell-based high throughput dose response assay to identify inverse agonists of the Steroidogenic Factor 1 Nuclear Receptor (SF1; NR5A1).; format: functional
cells = format: functional
[6] = biological target: T1, Sentrin-specific protease 8 (Homo sapiens, UniProt Q96LD8); format: functional;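 further: luminescence read-out of SENP8 inhibition, dose-response confirmation following an ultra-high-throughput screen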
T1 sequence (Q96LD8 whole entry): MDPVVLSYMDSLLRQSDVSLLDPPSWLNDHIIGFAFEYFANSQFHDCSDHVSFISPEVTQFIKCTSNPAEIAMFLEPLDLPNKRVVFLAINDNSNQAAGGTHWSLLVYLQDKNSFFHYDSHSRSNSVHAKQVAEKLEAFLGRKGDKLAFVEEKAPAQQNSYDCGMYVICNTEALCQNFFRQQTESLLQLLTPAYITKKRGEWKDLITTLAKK

[7] = biological target: T2, Sentrin-specific protease 7 (Homo sapiens, UniProt Q9BQF6); format: functional;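 further: Luminescence-based dose-response confirmation of ultra-high-throughput screening hits, measuring inhibition of SENP7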
T2 sequence (Q9BQF6 whole entry): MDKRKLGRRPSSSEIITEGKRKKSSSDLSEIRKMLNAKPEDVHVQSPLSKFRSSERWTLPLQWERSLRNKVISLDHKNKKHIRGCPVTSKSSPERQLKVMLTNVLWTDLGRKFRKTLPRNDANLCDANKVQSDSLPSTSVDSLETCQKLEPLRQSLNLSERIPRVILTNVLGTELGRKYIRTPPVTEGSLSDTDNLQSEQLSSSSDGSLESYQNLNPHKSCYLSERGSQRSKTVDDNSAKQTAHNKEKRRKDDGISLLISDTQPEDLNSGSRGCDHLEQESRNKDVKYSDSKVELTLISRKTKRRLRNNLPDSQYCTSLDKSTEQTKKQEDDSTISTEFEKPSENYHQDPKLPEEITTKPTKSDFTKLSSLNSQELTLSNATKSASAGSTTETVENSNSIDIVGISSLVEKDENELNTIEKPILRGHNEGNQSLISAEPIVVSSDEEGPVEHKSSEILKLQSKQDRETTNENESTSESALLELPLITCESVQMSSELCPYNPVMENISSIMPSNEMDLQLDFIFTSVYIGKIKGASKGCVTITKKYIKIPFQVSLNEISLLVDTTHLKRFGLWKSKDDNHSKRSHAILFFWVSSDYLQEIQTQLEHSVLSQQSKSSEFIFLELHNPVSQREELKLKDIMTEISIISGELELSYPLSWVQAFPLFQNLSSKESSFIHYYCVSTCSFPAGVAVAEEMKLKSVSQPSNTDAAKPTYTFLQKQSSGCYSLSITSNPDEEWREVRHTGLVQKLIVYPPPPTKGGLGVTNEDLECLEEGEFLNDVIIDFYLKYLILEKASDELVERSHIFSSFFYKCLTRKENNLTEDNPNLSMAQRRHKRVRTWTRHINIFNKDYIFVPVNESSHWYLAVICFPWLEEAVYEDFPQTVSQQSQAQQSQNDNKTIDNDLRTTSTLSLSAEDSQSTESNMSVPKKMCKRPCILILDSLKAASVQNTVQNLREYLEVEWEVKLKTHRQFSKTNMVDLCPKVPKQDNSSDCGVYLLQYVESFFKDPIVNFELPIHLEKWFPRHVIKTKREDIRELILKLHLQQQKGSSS

[8] = StAR promoter reporter inhibition counter-screen, dose response, counter-screen for LRH-1 inverse agonist project, cell-based, luminescence, luciferase reporter (AID 651969); format: functional
[9] = biological target: T3, Sentrin-specific protease 6 (Homo sapiens, UniProt Q9GZR1); format: functional;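 further: Luminescence-based dose-response confirmatory assay of SENP6 inhibition, following up an ultra-high-throughput screen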
T3 sequence (Q9GZR1 whole entry): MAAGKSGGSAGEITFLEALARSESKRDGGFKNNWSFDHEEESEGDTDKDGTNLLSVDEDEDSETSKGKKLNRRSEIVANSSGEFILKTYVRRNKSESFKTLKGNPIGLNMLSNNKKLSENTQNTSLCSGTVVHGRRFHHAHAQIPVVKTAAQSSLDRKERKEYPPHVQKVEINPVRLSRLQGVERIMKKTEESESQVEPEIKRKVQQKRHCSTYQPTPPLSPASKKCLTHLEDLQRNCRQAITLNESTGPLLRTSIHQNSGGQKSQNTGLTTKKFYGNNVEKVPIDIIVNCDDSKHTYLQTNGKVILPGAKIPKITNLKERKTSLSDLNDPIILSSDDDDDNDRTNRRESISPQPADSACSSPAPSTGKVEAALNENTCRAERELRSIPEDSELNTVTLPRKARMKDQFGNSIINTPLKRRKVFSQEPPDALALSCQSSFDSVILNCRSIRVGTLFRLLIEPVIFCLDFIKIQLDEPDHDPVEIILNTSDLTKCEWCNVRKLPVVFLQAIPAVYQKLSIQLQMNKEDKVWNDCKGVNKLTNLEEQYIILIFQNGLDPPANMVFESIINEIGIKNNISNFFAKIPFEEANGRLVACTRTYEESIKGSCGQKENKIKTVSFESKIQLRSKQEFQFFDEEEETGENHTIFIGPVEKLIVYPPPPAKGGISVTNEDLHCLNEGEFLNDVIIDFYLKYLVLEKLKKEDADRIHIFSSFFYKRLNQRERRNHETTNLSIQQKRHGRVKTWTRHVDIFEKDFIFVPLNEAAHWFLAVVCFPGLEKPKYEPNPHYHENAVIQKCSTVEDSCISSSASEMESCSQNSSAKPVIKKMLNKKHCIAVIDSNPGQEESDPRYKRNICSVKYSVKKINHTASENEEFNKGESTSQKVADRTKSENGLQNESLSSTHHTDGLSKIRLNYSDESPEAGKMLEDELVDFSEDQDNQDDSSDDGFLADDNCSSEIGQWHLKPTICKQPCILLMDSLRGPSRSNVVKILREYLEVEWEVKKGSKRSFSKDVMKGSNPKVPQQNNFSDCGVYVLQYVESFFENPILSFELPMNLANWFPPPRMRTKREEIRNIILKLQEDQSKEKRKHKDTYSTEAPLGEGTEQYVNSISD

HEK293 [10] = experiment: NOD1 signaling inhibitors, primary screen, cell-based, luminescence, uHTS (AID 1578); format: functional; conditions: Homo sapiens
Caspase-3 = biological target: T4, Caspase-3 (Homo sapiens, UniProt P42574); format: functional;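 further: Dose-response selectivity test against caspase-3 for candidate inhibitors of sentrin-specific proteases (SENPs)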
T4 sequence (P42574 whole entry): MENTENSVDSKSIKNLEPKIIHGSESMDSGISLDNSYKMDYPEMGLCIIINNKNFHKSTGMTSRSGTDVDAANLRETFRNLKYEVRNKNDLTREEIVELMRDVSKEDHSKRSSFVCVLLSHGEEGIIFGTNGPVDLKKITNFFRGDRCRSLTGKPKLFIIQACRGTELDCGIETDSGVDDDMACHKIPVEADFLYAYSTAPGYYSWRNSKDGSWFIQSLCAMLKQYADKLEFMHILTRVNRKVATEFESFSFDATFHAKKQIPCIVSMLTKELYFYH

[11] = biological target: Nucleotide-binding oligomerization domain-containing protein 2 (Homo sapiens, UniProt Q9HC29); experiment: NOD2 signaling inhibitors, cell-based, luminescence, uHTS, HEK293 (AID 1566); format: functional
HEK293 [12] = experiment: cells; format: functional, cell-based; conditions: Homo sapiens; remark: listed apart in the source
[13] = biological target: T5, Replicative DNA helicase DnaB (Mycobacterium tuberculosis, UniProt P9WMR3); experiment: DnaB intein splicing inhibitors, dose response, biochemical, cell-free fluorescence (AID 449749); format: functional
T5 sequence (P9WMR3 whole entry): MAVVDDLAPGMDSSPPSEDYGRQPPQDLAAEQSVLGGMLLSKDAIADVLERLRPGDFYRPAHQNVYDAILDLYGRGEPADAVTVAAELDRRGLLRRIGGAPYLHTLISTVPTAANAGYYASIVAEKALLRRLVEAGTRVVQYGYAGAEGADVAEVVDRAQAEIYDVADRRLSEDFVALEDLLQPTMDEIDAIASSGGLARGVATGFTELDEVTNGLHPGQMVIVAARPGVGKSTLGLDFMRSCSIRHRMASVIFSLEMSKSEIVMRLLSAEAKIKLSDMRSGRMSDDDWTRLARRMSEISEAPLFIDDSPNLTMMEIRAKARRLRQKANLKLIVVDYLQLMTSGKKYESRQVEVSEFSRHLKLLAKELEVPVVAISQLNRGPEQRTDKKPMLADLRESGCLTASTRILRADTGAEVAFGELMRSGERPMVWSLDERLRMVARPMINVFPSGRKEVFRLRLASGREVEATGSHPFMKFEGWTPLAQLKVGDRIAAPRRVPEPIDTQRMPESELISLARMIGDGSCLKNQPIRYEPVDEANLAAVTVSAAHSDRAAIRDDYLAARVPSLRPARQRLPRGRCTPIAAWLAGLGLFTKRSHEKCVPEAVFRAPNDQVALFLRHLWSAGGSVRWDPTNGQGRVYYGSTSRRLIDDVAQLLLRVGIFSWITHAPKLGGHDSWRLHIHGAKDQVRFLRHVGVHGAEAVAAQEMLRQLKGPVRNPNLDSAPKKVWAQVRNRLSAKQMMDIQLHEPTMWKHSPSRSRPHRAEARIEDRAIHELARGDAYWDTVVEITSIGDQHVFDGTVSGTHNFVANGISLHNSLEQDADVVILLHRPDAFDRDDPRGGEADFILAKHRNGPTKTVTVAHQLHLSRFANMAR

[14] = cytotoxicity toward DRD oncogenic fibroblasts, dose response, cell-based, non-viral oncogenic, luminescence (AID 1934); format: functional; conditions: Homo sapiens
BJ [15] = experiment: cells; format: functional, cell-based; conditions: Homo sapiens
Protein RecA = biological target: T6, Protein RecA (Mycobacterium tuberculosis, UniProt P9WHJ3); experiment: Fluorescence Cell-Free Homogeneous Dose Retest to Identify Inhibitors of RecA-Intein Splicing Activity. [Related pubchem assays (depositor defined):AID2097, AID2223, AID489010, AID492950]; format: functional
T6 sequence (P9WHJ3 whole entry): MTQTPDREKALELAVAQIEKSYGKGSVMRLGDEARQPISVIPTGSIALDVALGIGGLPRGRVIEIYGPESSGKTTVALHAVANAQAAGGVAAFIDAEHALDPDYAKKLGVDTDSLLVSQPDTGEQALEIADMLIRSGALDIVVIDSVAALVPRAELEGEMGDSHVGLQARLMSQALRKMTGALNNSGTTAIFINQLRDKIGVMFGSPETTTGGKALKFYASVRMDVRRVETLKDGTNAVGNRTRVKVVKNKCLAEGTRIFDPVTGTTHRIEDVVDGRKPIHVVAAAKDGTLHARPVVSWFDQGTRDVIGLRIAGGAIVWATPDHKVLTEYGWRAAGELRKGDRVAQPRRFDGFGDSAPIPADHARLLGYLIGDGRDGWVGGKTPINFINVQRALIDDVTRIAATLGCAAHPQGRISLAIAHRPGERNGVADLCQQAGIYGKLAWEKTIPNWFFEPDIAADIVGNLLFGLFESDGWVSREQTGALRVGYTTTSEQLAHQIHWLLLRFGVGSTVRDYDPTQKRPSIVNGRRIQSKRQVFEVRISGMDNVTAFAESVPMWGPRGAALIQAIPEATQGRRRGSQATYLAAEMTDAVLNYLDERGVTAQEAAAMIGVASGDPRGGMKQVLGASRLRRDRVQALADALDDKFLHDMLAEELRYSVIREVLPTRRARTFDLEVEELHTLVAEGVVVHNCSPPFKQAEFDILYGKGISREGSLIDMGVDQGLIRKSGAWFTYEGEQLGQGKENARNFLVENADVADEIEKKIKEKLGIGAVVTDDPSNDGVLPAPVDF

BJ [16] = experiment: cytotoxicity toward BJ-TERT-LT-ST fibroblasts, dose response, cell-based, RAS-independent, luminescence (AID 1935); format: functional; conditions: Homo sapiens;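 further: BJ fibroblasts immortalized with TERT plus LT and ST oncogenes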
BJ [17] = experiment: cytotoxicity toward BJ-TERT fibroblasts, dose response, cell-based, RAS-independent, luminescence (AID 1933); format: functional; conditions: Homo sapiens

Nucleotide-binding oligomerization domain-containing protein 2, sequence (Q9HC29 whole entry, the tested form may be a part): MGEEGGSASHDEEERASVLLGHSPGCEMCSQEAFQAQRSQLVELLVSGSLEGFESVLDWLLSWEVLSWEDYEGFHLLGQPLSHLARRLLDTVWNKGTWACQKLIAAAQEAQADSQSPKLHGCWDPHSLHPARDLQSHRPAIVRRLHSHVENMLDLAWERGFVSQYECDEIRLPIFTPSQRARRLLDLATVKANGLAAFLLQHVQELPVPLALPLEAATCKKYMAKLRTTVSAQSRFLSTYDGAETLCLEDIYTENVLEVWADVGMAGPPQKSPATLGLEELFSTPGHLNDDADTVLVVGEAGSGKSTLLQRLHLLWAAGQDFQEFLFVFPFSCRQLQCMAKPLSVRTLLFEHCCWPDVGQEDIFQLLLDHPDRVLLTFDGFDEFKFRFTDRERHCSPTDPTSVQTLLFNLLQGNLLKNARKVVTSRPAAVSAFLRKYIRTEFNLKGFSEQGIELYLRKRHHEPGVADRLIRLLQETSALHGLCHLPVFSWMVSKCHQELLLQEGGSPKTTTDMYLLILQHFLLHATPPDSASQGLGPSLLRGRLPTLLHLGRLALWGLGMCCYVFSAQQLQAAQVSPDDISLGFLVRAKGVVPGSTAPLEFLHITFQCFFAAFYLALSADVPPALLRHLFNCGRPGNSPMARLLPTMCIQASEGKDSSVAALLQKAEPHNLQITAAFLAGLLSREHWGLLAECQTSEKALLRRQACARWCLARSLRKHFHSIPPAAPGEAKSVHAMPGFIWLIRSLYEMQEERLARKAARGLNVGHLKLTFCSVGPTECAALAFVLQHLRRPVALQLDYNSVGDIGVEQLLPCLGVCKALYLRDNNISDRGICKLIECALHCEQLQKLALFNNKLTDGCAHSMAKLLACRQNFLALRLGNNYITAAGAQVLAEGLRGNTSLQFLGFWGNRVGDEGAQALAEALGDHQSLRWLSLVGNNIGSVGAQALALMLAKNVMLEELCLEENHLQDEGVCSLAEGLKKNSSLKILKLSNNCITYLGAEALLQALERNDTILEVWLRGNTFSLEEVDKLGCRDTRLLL
Steroidogenic factor 1, sequence (Q13285 whole entry): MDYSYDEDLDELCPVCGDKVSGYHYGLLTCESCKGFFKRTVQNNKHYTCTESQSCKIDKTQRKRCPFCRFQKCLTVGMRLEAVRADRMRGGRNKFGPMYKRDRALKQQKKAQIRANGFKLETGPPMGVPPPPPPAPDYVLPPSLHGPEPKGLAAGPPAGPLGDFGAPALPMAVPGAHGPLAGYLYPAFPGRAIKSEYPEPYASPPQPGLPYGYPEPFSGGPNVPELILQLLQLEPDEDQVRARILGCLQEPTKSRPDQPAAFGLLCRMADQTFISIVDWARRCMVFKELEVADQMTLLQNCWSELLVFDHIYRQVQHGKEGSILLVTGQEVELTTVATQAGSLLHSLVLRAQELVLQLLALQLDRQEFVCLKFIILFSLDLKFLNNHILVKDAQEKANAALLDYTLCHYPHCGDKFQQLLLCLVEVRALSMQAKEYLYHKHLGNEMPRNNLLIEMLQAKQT
Nuclear receptor subfamily 5 group A member 2, sequence (O00482 whole entry): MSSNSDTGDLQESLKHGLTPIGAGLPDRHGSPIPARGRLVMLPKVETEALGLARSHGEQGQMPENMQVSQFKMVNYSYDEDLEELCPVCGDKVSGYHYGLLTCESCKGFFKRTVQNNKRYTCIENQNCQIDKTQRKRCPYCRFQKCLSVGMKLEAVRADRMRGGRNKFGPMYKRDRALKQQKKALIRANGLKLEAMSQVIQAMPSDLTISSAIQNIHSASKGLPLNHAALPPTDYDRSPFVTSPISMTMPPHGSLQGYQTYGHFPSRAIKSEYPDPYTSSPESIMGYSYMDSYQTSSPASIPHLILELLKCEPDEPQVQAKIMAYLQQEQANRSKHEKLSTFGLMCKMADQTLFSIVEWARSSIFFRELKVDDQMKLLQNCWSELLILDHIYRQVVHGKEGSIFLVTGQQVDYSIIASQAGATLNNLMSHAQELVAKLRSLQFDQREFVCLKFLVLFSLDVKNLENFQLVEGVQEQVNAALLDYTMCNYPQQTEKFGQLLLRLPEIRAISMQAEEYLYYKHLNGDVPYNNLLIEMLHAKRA

O=C(Nc1nc2c(Cl)cccc2s1)c1ccc([N+](=O)[O-])o1
active: IC50 [1] 0.148 µM | IC50 (HEK293 [2]) 18.6 µM | CC50 [3] 39.3 µM | IC50 (HEK293 [5]) 7.38 µM | IC50 (Steroidogenic factor 1) 0.443 µM | IC50 (cells) 10.4 µM | IC50 [6] 32.9 µM | IC50 [7] 17.2 µM | IC50 [9] 20.3 µM | EC50 (HEK293 [10]) 5.52 µM | IC50 (Caspase-3) 61.8 µM
inactive: IC50 (HEK293 [4]) 13.2 µM | IC50 [8] 35.9 µM

CCOC(=O)c1sc2ccccc2c1OC(=O)c1ccc(C)cc1
active: IC50 (HEK293 [2]) 9.53 µM | EC50 [11] 2.22 µM | IC50 (HEK293 [4]) 6.76 µM | EC50 (HEK293 [10]) 10.7 µM
inactive: IC50 (HEK293 [12]) > 20 µM | IC50 (HEK293 [5]) > 20 µM

O=C(CCl)Nc1cc(-c2ccccc2)nn1-c1ccccc1
active: IC50 (HEK293 [2]) 4.63 µM | EC50 [14] 8.91 µM | IC50 (HEK293 [4]) 7.21 µM | IC50 (HEK293 [5]) 19.2 µM | EC50 (BJ [15]) 9.6 µM | EC50 (Protein RecA) 5.55 µM | EC50 (BJ [16]) 5.05 µM | EC50 (HEK293 [10]) 4.71 µM
inactive: AC50 [13] > 380 µM | EC50 [11] > 20 µM | IC50 (HEK293 [12]) > 20 µM
inconclusive: EC50 (BJ [17]) 5.38 µM
